We go through 2 compounds from US20160136286A1, “DRUG DELIVERY COMPOSITION” (The Queen's University of Belfast, priority 2008, published 2016).

A short description of data set [1]: solution in acetonitrile exposed to alternating periods of light and dark (365 nm), progress of drug liberation monitored. As to conditions: six alternating periods (FIG. 2). The format is physicochemical. An excerpt:
A solution of 2 in acetonitrile was then exposed to alternating periods of light and dark using the same conditions for light conditions as previously. […] The dose of liberated drug thus correlates with the duration of exposure to light. In this example, six periods of dosing and nondosing are alternated; this can be extended to any discrete dose required, in principle to the level of control provided from the light source, which includes molecule-scale control from low bursts of light deliverable from a laser source.

The nature of data set [2]: irradiation of a solution of the conjugate with 365 nm UV-A radiation, followed by UV-visible spectra. The format is physicochemical. As to conditions: solution irradiated with 365 nm UV-A; judged from isosbestic points at 231 and 262 nm (FIG. 1). From the text:
The behaviour of 2-4 is characterised by irradiating a solution using 365 nm UV-A radiation. As the photochemical reaction proceeds, the UV-visible spectrum of the reaction mixture changes (FIG. 1), reflecting the formation of 1 and drug and the consumption of conjugate. […] The identity of reaction products was verified by chromatographic separation, followed by spectroscopic analysis to be solely the corresponding drug and 1. The reaction proceeded in an analogous fashion to related nondrug examples 12 and all three conjugates 2-4 behaved similarly.

Consider `COc1cc(OC)cc(C(OC(=O)c2ccccc2OC(C)=O)C(=O)c2ccccc2)c1` (stereo not drawn) [Compound 2], for which the “drug liberation reaction under light conditions” value in data set [1] (365 nm light periods) was “proceeds”. Besides, the “liberation of drug in dark conditions” value in data set [1] (dark periods) is “stopped completely”.

Take `COc1cc(OC)cc(C(OC(=O)C(C)c2ccc(CC(C)C)cc2)C(=O)c2ccccc2)c1` (stereo not drawn) [Compound 3]: the “side products of the photochemical reaction” value in data set [2] is on record as “no side products”.
